Assay results published in ChEMBL document CHEMBL1201861, “Genomics of Drug Sensitity in Cancer screening data, Wellcome Trust Sanger Institute”.

Legend:
SCLC-21H = assay: cells; format: functional, cell-based; details: Homo sapiens;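 also: growth inhibition of cultured human SCLC-21H cells, read out with a cell viability assay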
Description: SANGER: Inhibition of human SCLC-21H cell growth in a cell viability assay.

TUR = assay: cells; format: functional, cell-based; details: Homo sapiens;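 also: growth inhibition of human TUR cells, read out with a cell viability assay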
Description: SANGER: Inhibition of human TUR cell growth in a cell viability assay.

LOUCY = assay: cells; format: functional, cell-based; details: Homo sapiens;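 also: growth inhibition of human LOUCY cells, read out with a cell viability assay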
Description: SANGER: Inhibition of human LOUCY cell growth in a cell viability assay.

NCI-H719 = assay: cells; format: functional, cell-based; details: Homo sapiens;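 also: growth inhibition of the cultured cell line, read out with a viability assay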
Description: SANGER: Inhibition of human NCI-H719 cell growth in a cell viability assay.

NCI-H2141 = assay: cells; format: functional, cell-based; details: Homo sapiens;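 also: growth inhibition of human NCI-H2141 cells, read out with a cell viability assay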
Description: SANGER: Inhibition of human NCI-H2141 cell growth in a cell viability assay.

MDA-MB-134-VI = assay: cells; format: functional, cell-based; details: Homo sapiens
Description: SANGER: Inhibition of human MDA-MB-134-VI cell growth in a cell viability assay.

CESS = assay: SANGER: Inhibition of human CESS cell growth in a cell viability assay.; format: functional, cell-based
TE-15 = assay: cells; format: functional, cell-based; details: Homo sapiens;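 also: cell viability readout of growth inhibition in TE-15 cells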
Description: SANGER: Inhibition of human TE-15 cell growth in a cell viability assay.

NCI-H2171 = assay: cells; format: functional, cell-based; details: Homo sapiens;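 also: growth inhibition of human NCI-H2171 cells, read out by a cell viability assay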
Description: SANGER: Inhibition of human NCI-H2171 cell growth in a cell viability assay.

MONO-MAC-6 = assay: cells; format: functional, cell-based; details: Homo sapiens;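 also: cell viability assay measuring growth inhibition of human MONO-MAC-6 cells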
Description: SANGER: Inhibition of human MONO-MAC-6 cell growth in a cell viability assay.

U-698-M = assay: cells; format: functional, cell-based; details: Homo sapiens
Description: SANGER: Inhibition of human U-698-M cell growth in a cell viability assay.

NCI-H1417 = assay: cells; format: functional, cell-based; details: Homo sapiens;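 also: human NCI-H1417 cells, growth inhibition determined with a cell viability readout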
Description: SANGER: Inhibition of human NCI-H1417 cell growth in a cell viability assay.

EW-22 = assay: cells; format: functional, cell-based; details: Homo sapiens;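 also: growth inhibition of the EW-22 cell line, measured with a cell viability readout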
Description: SANGER: Inhibition of human EW-22 cell growth in a cell viability assay.

TE-441-T = assay: cells; format: functional, cell-based; details: Homo sapiens
Description: SANGER: Inhibition of human TE-441-T cell growth in a cell viability assay.

EB-3 = assay: cells; format: functional, cell-based; details: Homo sapiens;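 also: human EB-3 cells, growth inhibition read out via a cell viability assay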
Description: SANGER: Inhibition of human EB-3 cell growth in a cell viability assay.

NCI-H187 = assay: cells; format: functional, cell-based; details: Homo sapiens;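 also: growth inhibition of NCI-H187 cells, read out as cell viability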
Description: SANGER: Inhibition of human NCI-H187 cell growth in a cell viability assay.

EVSA-T = assay: cells; format: functional, cell-based, Homo sapiens; details: Homo sapiens, EVSA-T;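 also: growth inhibition of EVSA-T cells, read out with a cell viability assay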
Description: SANGER: Inhibition of human EVSA-T cell growth in a cell viability assay.

SKM-1 = assay: SANGER: Inhibition of human SKM-1 cell growth in a cell viability assay.; format: functional, cell-based
DG-75 = assay: cells; format: functional, cell-based; details: Homo sapiens;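 also: growth inhibition of DG-75 cells, read out with a cell viability assay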
Description: SANGER: Inhibition of human DG-75 cell growth in a cell viability assay.

NCI-H128 = assay: SANGER: Inhibition of human NCI-H128 cell growth in a cell viability assay.; format: functional, cell-based
LB647-SCLC = assay: cells; format: functional, cell-based; details: Homo sapiens;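 also: cell growth inhibition, read out by a viability assay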
Description: SANGER: Inhibition of human LB647-SCLC cell growth in a cell viability assay.

CPC-N = assay: cells; format: functional, cell-based; details: Homo sapiens;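 also: growth inhibition of CPC-N cells, with a cell viability assay as the readout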
Description: SANGER: Inhibition of human CPC-N cell growth in a cell viability assay.

SK-MM-2 = assay: cells; format: functional, cell-based; details: Homo sapiens;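 also: growth inhibition of human SK-MM-2 cells, read out with a cell viability assay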
Description: SANGER: Inhibition of human SK-MM-2 cell growth in a cell viability assay.

LU-165 = assay: cells; format: functional, cell-based; details: Homo sapiens
Description: SANGER: Inhibition of human LU-165 cell growth in a cell viability assay.

SU-DHL-1 = assay: SANGER: Inhibition of human SU-DHL-1 cell growth in a cell viability assay.; format: functional, cell-based
KMS-12-PE = assay: cells; format: functional, cell-based; details: Homo sapiens;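 also: growth inhibition of human KMS-12-PE cells, measured with a cell viability assay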
Description: SANGER: Inhibition of human KMS-12-PE cell growth in a cell viability assay.

SR = assay: cells; format: functional, cell-based; details: Homo sapiens
Description: SANGER: Inhibition of human SR cell growth in a cell viability assay.

EW-12 = assay: SANGER: Inhibition of human EW-12 cell growth in a cell viability assay.; format: functional, cell-based
NBsusSR = assay: cells; format: functional, cell-based; details: Homo sapiens;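 also: growth inhibition of the human cell line, read out with a cell viability assay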
Description: SANGER: Inhibition of human NBsusSR cell growth in a cell viability assay.

NCI-H1048 = assay: cells; format: functional, cell-based; details: Homo sapiens;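 also: growth inhibition of human NCI-H1048 cells, read out with a cell viability assay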
Description: SANGER: Inhibition of human NCI-H1048 cell growth in a cell viability assay.

G-361 = assay: cells; format: functional, cell-based, Homo sapiens; details: Homo sapiens, G-361
NCI-H2029 = assay: cells; format: functional, cell-based; details: Homo sapiens;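 also: Read-out is a viability assay on the cultured cells, and IC50 is the concentration that suppresses cell growth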
Description: SANGER: Inhibition of human NCI-H2029 cell growth in a cell viability assay.

HuO9 = assay: cells; format: functional, cell-based, Homo sapiens; details: Homo sapiens, HuO9;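 also: growth inhibition of HuO9 cells, read out with a cell viability assay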
Description: SANGER: Inhibition of human HuO9 cell growth in a cell viability assay.

NCI-H630 = assay: cells; format: functional, cell-based, Homo sapiens; details: Homo sapiens, NCI-H630;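 also: growth inhibition of NCI-H630 cells, read out with a cell viability assay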
Description: SANGER: Inhibition of human NCI-H630 cell growth in a cell viability assay.

NCI-H2291 = assay: cells; format: functional, cell-based; details: Homo sapiens
Description: SANGER: Inhibition of human NCI-H2291 cell growth in a cell viability assay.

H-EMC-SS = assay: cells; format: functional, cell-based; details: Homo sapiens
Description: SANGER: Inhibition of human H-EMC-SS cell growth in a cell viability assay.

SJRH30 = assay: cells; format: functional, cell-based; details: Homo sapiens;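 also: growth inhibition of human SJRH30 cells, read out with a cell viability assay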
Description: SANGER: Inhibition of human SJRH30 cell growth in a cell viability assay.

C=C1C(=O)O[C@@H]2C3O[C@]3(C)CC/C=C(\C)CC[C@@H]12 (some centres not stated) was tested, and the IC50 (SCLC-21H) was over 5000 nM, the IC50 (TUR) was over 5000 nM and the IC50 (LOUCY) was over 5000 nM. The IC50 (NCI-H719) was over 5000 nM, the IC50 (NCI-H2141) was over 5000 nM and the IC50 (MDA-MB-134-VI) was over 5000 nM. For the same molecule, the IC50 (CESS) was over 5000 nM, the IC50 (TE-15) was over 5000 nM and the IC50 (NCI-H2171) was over 5000 nM. For the same molecule, the IC50 (MONO-MAC-6) was over 5000 nM, the IC50 (U-698-M) was over 5000 nM and the IC50 (NCI-H1417) was over 5000 nM. It also gave an IC50 (EW-22) of over 5000 nM, an IC50 (TE-441-T) of over 5000 nM and an IC50 (EB-3) of over 5000 nM. It also gave an IC50 (NCI-H187) of over 5000 nM, an IC50 (EVSA-T) of over 5000 nM and an IC50 (SKM-1) of over 5000 nM. The IC50 (DG-75) was over 5000 nM, the IC50 (NCI-H128) was over 5000 nM and the IC50 (LB647-SCLC) was over 5000 nM. It also gave an IC50 (CPC-N) of over 5000 nM, an IC50 (SK-MM-2) of over 5000 nM and an IC50 (LU-165) of over 5000 nM. For the same molecule, the IC50 (SU-DHL-1) was over 5000 nM, the IC50 (KMS-12-PE) was over 5000 nM and the IC50 (SR) was over 5000 nM. It also gave an IC50 (EW-12) of over 5000 nM.
Molecule CN(C)C/C=C/C(=O)Nc1cc2c(Nc3ccc(F)c(Cl)c3)ncnc2cc1O[C@H]1CCOC1 [AFATINIB] has an IC50 (NBsusSR) of over 500 nM, an IC50 (NCI-H1048) of over 500 nM and an IC50 (G-361) of over 500 nM. For the same molecule, the IC50 (NCI-H2029) was over 500 nM, the IC50 (EW-22) was over 500 nM and the IC50 (HuO9) was over 500 nM. The IC50 (NCI-H630) was over 500 nM, the IC50 (NCI-H2291) was over 500 nM and the IC50 (H-EMC-SS) was over 500 nM. It also gave an IC50 (SJRH30) of over 500 nM.
Molecule O=C(NOCC1CC1)c1ccc(F)c(F)c1Nc1ccc(I)cc1Cl [CI-1040] has an IC50 (NBsusSR) of 5570 nM, an IC50 (NCI-H1048) of over 10000 nM and an IC50 (G-361) of 368 nM. For the same molecule, the IC50 (NCI-H2029) was over 10000 nM, the IC50 (EW-22) was over 10000 nM and the IC50 (HuO9) was over 10000 nM. It also gave an IC50 (NCI-H630) of over 10000 nM, an IC50 (NCI-H2291) of 1330 nM and an IC50 (H-EMC-SS) of 1300 nM. The IC50 (SJRH30) was over 10000 nM.
With Nc1ccn([C@@H]2O[C@H](CO)[C@@H](O)[C@@H]2O)c(=O)n1 [CYTARABINE] the IC50 (NBsusSR) was 335 nM, the IC50 (NCI-H1048) was 389 nM and the IC50 (G-361) was over 2000 nM. The IC50 (NCI-H2029) was over 2000 nM, the IC50 (EW-22) was 668 nM and the IC50 (HuO9) was over 2000 nM. It also gave an IC50 (NCI-H630) of over 2000 nM, an IC50 (NCI-H2291) of over 2000 nM and an IC50 (H-EMC-SS) of 145 nM. For the same molecule, the IC50 (SJRH30) was 683 nM.
With CC(=O)O[C@@]12CO[C@@H]1C[C@H](O)[C@@]1(C)C(=O)[C@H](O)C3=C(C)[C@@H](OC(=O)[C@H](O)[C@@H](NC(=O)OC(C)(C)C)c4ccccc4)C[C@@](O)([C@@H](OC(=O)c4ccccc4)[C@H]21)C3(C)C [DOCETAXEL] the IC50 (NBsusSR) was 1.1 nM, the IC50 (NCI-H1048) was 1.92 nM and the IC50 (G-361) was over 10 nM. For the same molecule, the IC50 (NCI-H2029) was over 10 nM, the IC50 (EW-22) was over 10 nM and the IC50 (HuO9) was 3.46 nM. The IC50 (NCI-H630) was over 10 nM, the IC50 (NCI-H2291) was over 10 nM and the IC50 (H-EMC-SS) was over 10 nM.
